Measured values from patent US9737075B2, “Synergistic benzoxaborole-containing anti-fungicidal composition” (The Penn State Research Foundation, priority 2015, dated 2017).
Converted amounts (≈) assume the structure as drawn. Read-outs that look alike come from different tables or passages of the source.

Assays:
Assay type in all cases: cell-based
Fusarium graminearum = experiment: microbe, parasite or virus in culture; details: Fusarium graminearum, 72 h, read-out: Independent MIC
Botrytis cinerea 10-1728 = experiment: Broth microdilution MIC of individual antifungals; details: Botrytis cinerea 10-1728, individual antifungal, 25% PDB, about 25° C., 72 hours, range over N independent triplicate studies; for MIC: 101728, read-out: Independent MIC
Sclerotinia homoeocarpa = experiment: Broth microdilution MIC of individual antifungals; details: Sclerotinia homoeocarpa, individual antifungal, 25% PDB, about 25° C., 72 hours, range over N independent triplicate studies; for MIC: Clarireedia homoeocarpa, read-out: Independent MIC
Aspergillus niger = experiment: Broth microdilution MIC of individual antifungals; details: read-out: Independent MIC
Mucor sp. = experiment: Broth microdilution MIC of individual antifungals; details: individual antifungal, 25% PDB, about 25° C., 72 hours, range over N independent triplicate studies
Magnaporthe grisea = experiment: microbe, parasite or virus in culture; details: Pyricularia oryzae, 72 h, read-out: Independent MIC
Phytophthora pini = experiment: Broth microdilution MIC of individual antifungals; details: individual antifungal, 25% PDB, about 25° C., 72 hours, range over N independent triplicate studies
Fusarium verticillioides = experiment: Broth microdilution MIC of individual antifungals; details: individual antifungal, 25% PDB, about 25° C., 72 hours, range over N independent triplicate studies, read-out: Independent MIC
Aspergillus flavus = experiment: Broth microdilution MIC of individual antifungals; details: individual antifungal, 25% PDB, about 25° C., 72 hours, range over N independent triplicate studies, read-out: Independent MIC
Aspergillus fumigatus = experiment: Broth microdilution MIC of individual antifungals; details: individual antifungal, 25% PDB, about 25° C., 72 hours, range over N independent triplicate studies, read-out: Independent MIC
[1] = system: Mycosphaerella zeae-maydis; experiment: Broth microdilution MIC of individual antifungals; details: Didymella maydis, individual antifungal, 25% PDB, about 25° C., 72 hours, range over N independent triplicate studies
Alternaria solani = experiment: Broth microdilution MIC of individual antifungals; details: individual antifungal, 25% PDB, about 25° C., 72 hours, range over N independent triplicate studies; for MIC: read-out: Independent MIC
Penicillium chrysogenum = experiment: Broth microdilution MIC of individual antifungals; details: read-out: Independent MIC
[2] = system: Colletotrichum orbiculare; experiment: Broth microdilution MIC of individual antifungals; details: read-out: Independent MIC
Candida albicans = experiment: Broth microdilution MIC of individual antifungals; details: individual antifungal, 25% PDB, about 25° C., 72 hours, range over N independent triplicate studies, read-out: Independent MIC
Rhizopus sp. = experiment: Broth microdilution MIC of individual antifungals; details: Rhizopus, 72 h, read-out: Independent MIC
Rhizoctonia solani = experiment: Broth microdilution MIC of individual antifungals; details: individual antifungal, 25% PDB, about 25° C., 72 hours, range over N independent triplicate studies, read-out: Independent MIC
Botrytis cinerea B17 = experiment: Broth microdilution MIC of individual antifungals; details: Botrytis cinerea, B17, 72 h, read-out: Independent MIC
Aureobasidium pullulans = experiment: Broth microdilution MIC of individual antifungals; details: 72 h, read-out: Independent MIC
Stachybotrys chartarum = experiment: Broth microdilution MIC of individual antifungals; details: 72 h, read-out: Independent MIC
[3] = individual antifungal, 25% PDB, about 25° C., 72 hours, range over N independent triplicate studies
[4] = Rhizopus sp., individual antifungal, 25% PDB, about 25° C., 72 hours, range over N independent triplicate studies

OB1OCc2ccccc21 [BO, 2-(hydroxymethyl)benzene boronic acid hemiester]
MIC (Fusarium graminearum): 2 to 4 mg/L (≈ 14.9 to 29.9 µM)

O=C(Nc1ccccc1-c1ccc(Cl)cc1)c1cccnc1Cl [Boscalid, boscalid]
MIC (Botrytis cinerea 10-1728): 3.12 to 6.25 mg/L
MIC (Sclerotinia homoeocarpa): 0.8 mg/L
MIC (Aspergillus niger; [3]): 0.39 to 0.5 mg/L

CCCCc1c(C)nc(NCC)nc1OS(=O)(=O)N(C)C [Bupirimate]
MIC (Botrytis cinerea 10-1728): 100 mg/L
MIC (Mucor sp.): 100 mg/L
MIC (Sclerotinia homoeocarpa): 50 to 100 mg/L
MIC (Magnaporthe grisea): 50 mg/L (≈ 158 µM)
MIC (Phytophthora pini): 50 mg/L

COC(=O)Nc1nc2ccccc2[nH]1 [Carbendazim, carbendazim]
MIC (Sclerotinia homoeocarpa): 0.05 to 0.1 mg/L
MIC (Fusarium verticillioides): 3.12 to 4 mg/L
MIC (Magnaporthe grisea): 0.39 to 0.78 mg/L (≈ 2.04 to 4.08 µM)
MIC (Fusarium graminearum): 1.56 mg/L (≈ 8.16 µM)
MIC (Aspergillus flavus): 0.78 to 3.12 mg/L
MIC (Aspergillus niger; 72 h): 1 to 1.56 mg/L
MIC (Aspergillus fumigatus): 1.56 to 3.12 mg/L
MIC [1]: 1.56 to 2 mg/L

Cc1cc(C2CC2)nc(Nc2ccccc2)n1 [Cyprodinil, cyprodinil]
MIC (Botrytis cinerea 10-1728): 50 to 100 mg/L
MIC (Mucor sp.): 50 mg/L
MIC (Sclerotinia homoeocarpa): 0.39 mg/L
MIC (Fusarium verticillioides): 100 to 200 mg/L
MIC (Alternaria solani): 100 mg/L
MIC (Fusarium graminearum): 200 mg/L (≈ 888 µM)
MIC (Penicillium chrysogenum; [3]): 0.025 to 0.048 mg/L
MIC [2, 3]: 100 to 200 mg/L
MIC (Aspergillus flavus): 0.75 to 1.56 mg/L
MIC (Candida albicans): 50 mg/L
MIC (Aspergillus niger; [3]): 3.12 mg/L
MIC [1]: 1.56 mg/L

CCOc1ccc(NC(=O)OC(C)C)cc1OCC [Diethofencarb, diethofencarb]
MIC (Botrytis cinerea 10-1728): 1.5 to 1.56 mg/L
MIC (Mucor sp.): 100 to 200 mg/L
MIC (Sclerotinia homoeocarpa): 100 to 200 mg/L

COc1ccc(C(=CC(=O)N2CCOCC2)c2ccc(Cl)cc2)cc1OC [Dimethomorph, dimethomorph]
MIC (Botrytis cinerea 10-1728): 100 to 200 mg/L
MIC (Mucor sp.): 200 to 400 mg/L

CCCCc1c(C)nc(NCC)[nH]c1=O [Ethirimol, ethirimol]
MIC (Botrytis cinerea 10-1728): 200 to 400 mg/L
MIC (Sclerotinia homoeocarpa): 200 mg/L
MIC (Phytophthora pini): 200 mg/L
MIC [1]: 400 mg/L

CSC1=N[C@@](C)(c2ccccc2)C(=O)N1Nc1ccccc1 [Fenamidone, fenamidone]
MIC (Botrytis cinerea 10-1728): 100 mg/L
MIC (Mucor sp.): 50 to 200 mg/L
MIC (Sclerotinia homoeocarpa): 100 to 200 mg/L
MIC (Alternaria solani): 100 to 200 mg/L
MIC [1]: 50 to 200 mg/L

CC(Oc1ccc(Cl)cc1Cl)C(=O)NC(C)(C#N)C(C)C (stereo not shown) [Fenoxanil, fenoxanil]
Independent MIC (Botrytis cinerea 10-1728): (100-200) μg/mL
Independent MIC (Mucor sp.): (50-100) μg/mL
Independent MIC (Sclerotinia homoeocarpa): 200 mg/L
Independent MIC (Alternaria solani): 200 mg/L

O=[N+]([O-])c1cc(C(F)(F)F)c(Cl)c([N+](=O)[O-])c1Nc1ncc(C(F)(F)F)cc1Cl [Fluazinam, fluazinam]
MIC (Botrytis cinerea 10-1728): 1 to 1.56 mg/L
MIC (Rhizopus sp.; [4]): 0.2 to 0.78 mg/L
MIC (Mucor sp.): 0.78 to 1 mg/L
MIC (Sclerotinia homoeocarpa): 3.12 to 6.25 mg/L
MIC (Fusarium verticillioides): 12.5 mg/L
MIC (Alternaria solani): 0.5 to 0.78 mg/L
MIC (Rhizoctonia solani): 6.25 to 25 mg/L
MIC (Phytophthora pini): 3.12 mg/L
MIC (Aspergillus niger; [3]): 3.12 mg/L
MIC [1]: 1 to 1.56 mg/L

N#Cc1c[nH]cc1-c1cccc2c1OC(F)(F)O2 [Fludioxonil, fludioxonil]
MIC (Botrytis cinerea 10-1728): 0.5 to 0.78 mg/L
MIC (Rhizopus sp.): 50 to 80 mg/L
MIC (Botrytis cinerea B17): 0.5 mg/L
MIC (Sclerotinia homoeocarpa): 0.125 to 0.25 mg/L
MIC (Aureobasidium pullulans): 3 to 3.12 mg/L
MIC (Magnaporthe grisea): 0.16 to 0.31 mg/L (≈ 0.645 to 1.25 µM)
MIC (Stachybotrys chartarum): 2 mg/L
MIC (Fusarium graminearum): 50 mg/L (≈ 201 µM)
MIC (Penicillium chrysogenum; 72 h): 0.012 to 0.048 mg/L
MIC ([2]; 72 h): 0.195 to 0.39 mg/L
MIC (Phytophthora pini): 200 mg/L
MIC (Aspergillus fumigatus): 0.25 to 1 mg/L
MIC [1]: 2 mg/L

O=C(NCCc1ncc(C(F)(F)F)cc1Cl)c1ccccc1C(F)(F)F [Fluopyram, fluopyram]
MIC (Botrytis cinerea 10-1728): 1.56 to 4 mg/L
MIC (Rhizopus sp.; [4]): 200 mg/L
MIC (Mucor sp.): 200 mg/L
MIC (Sclerotinia homoeocarpa): 0.78 to 3.12 mg/L
MIC (Penicillium chrysogenum; [3]): 0.1 to 0.4 mg/L
MIC (Aspergillus flavus): 200 mg/L
MIC (Aspergillus niger; [3]): 0.78 to 1.56 mg/L
MIC (Aspergillus fumigatus): 3.12 to 6.25 mg/L

CC(C)Oc1cccc(NC(=O)c2ccccc2C(F)(F)F)c1 [Flutolanil, flutolanil]
MIC (Botrytis cinerea 10-1728): 400 mg/L
